This note sets out measurements from paper PMC12624712 (ACS Infectious Diseases, 2025).

Like-named read-outs stand apart in the source and are kept apart here. Bounds are passed on as bounds.

Series [1] deals with RVFV strain ZH-548. Kind of series: microbe, parasite or virus in culture. Type of series: cell-based. The settings on record: for IC50: Rift Valley fever virus.
Series [2] in a line: in vitro. The conditions noted are these: African green monkey.
In series [3] the test system is VERO E6 cells.
In series [4] the target is RVFV L protein (Rift valley fever virus, UniProt P27316). Kind of series: cell-based.
[5] abbreviates: Vero C1008, 72 h, read-out: IC50, cytopathic effect reduction assay.
Where [6] appears, read: Vero C1008, read-out: IC50: 95% CI, CPE reduction assay.

One may read the IC50 as the concentration that gives 50% inhibition.

Chain of RVFV L protein (P27316 whole entry, looked up): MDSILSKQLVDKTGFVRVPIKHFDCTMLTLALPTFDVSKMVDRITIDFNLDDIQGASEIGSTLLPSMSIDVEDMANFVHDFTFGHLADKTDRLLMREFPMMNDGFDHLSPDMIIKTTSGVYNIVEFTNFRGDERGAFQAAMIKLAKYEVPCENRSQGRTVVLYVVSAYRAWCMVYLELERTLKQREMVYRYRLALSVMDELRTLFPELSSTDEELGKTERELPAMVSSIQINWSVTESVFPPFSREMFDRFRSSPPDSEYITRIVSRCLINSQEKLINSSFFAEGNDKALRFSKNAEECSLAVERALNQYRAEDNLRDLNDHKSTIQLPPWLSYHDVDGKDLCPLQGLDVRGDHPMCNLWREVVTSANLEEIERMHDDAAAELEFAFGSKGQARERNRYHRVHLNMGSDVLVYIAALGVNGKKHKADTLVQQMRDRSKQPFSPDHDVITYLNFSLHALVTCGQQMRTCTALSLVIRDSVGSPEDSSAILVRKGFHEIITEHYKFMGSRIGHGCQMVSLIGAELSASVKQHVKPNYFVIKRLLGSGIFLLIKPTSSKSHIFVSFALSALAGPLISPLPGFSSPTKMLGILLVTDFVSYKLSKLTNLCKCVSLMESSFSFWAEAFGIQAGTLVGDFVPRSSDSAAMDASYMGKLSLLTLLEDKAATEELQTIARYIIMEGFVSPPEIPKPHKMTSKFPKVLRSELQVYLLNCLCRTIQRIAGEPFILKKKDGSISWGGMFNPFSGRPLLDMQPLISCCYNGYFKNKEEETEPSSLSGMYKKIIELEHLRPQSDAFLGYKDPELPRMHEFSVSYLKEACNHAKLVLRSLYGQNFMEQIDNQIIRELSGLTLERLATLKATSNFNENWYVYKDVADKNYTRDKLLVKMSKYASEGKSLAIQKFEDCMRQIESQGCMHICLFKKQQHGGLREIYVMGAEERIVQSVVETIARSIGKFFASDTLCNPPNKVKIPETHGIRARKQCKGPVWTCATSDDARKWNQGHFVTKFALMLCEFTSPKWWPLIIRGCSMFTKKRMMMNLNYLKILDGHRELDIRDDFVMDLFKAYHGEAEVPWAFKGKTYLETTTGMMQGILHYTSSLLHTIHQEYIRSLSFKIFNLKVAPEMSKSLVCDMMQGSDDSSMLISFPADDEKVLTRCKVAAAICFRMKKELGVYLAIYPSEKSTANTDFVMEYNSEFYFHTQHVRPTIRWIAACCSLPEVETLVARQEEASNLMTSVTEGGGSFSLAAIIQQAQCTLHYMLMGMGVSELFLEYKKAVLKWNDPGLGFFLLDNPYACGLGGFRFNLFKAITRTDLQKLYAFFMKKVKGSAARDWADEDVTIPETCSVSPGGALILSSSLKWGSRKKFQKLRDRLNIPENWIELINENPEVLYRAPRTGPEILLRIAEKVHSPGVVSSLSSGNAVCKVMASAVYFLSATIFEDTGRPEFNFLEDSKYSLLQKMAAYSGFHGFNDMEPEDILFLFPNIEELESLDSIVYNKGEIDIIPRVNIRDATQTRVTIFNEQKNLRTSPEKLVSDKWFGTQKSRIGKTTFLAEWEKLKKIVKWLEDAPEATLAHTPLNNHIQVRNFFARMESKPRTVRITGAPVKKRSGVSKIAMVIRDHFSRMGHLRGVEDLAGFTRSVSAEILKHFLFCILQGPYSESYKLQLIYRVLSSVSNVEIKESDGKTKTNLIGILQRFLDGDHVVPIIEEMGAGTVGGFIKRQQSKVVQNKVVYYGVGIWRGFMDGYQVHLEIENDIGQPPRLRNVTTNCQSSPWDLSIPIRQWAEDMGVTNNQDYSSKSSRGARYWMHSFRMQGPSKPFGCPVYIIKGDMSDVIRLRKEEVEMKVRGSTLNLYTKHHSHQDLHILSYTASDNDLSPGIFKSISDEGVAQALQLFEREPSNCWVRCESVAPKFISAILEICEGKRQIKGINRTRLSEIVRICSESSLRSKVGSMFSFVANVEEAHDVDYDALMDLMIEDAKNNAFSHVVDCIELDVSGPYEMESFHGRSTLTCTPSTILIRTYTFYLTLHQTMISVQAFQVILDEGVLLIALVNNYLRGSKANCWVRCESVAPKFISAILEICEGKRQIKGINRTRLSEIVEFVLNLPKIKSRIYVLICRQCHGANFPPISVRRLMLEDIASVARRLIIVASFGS

As to `Cc1cn([C@@H]2O[C@H](CO)[C@@H](O)[C@H]2F)c(=O)[nH]c1=O` [2´-fluoro-2´-deoxythymidine], the IC50 in series [1] (setting [5]) is above 100 µM. For the same compound, the CC50 in series [2] is above 100 µM.
For `COc1c(-c2ccc3cc(NS(C)(=O)=O)ccc3c2)cc(-n2ccc(=O)[nH]c2=O)cc1C(C)(C)C` [Dasabuvir], the “Activity against RVFV in cell culture” value in series [1] is on record as “lacked activity”. Besides, in series [1] (setting [5]), the IC50 is above 100 µM. In series [2], the CC50 was determined as 26 ± 7 µM.
Take `Nc1nc(=O)n([C@@H]2CS[C@H](CO)O2)cc1F` [Emtricitabine]: the IC50 in series [1] (setting [5]) was above 100 µM. Besides, the CC50 in series [2] was above 100 µM.
In series [3], 5'-fluoro-2'-deoxycytidine returned a CC50 above 100 µM.
As to `Nc1ccn([C@@H]2CS[C@H](CO)O2)c(=O)n1` [Lamivudine], the half-inhibitory concentration (IC50) in series [1] (setting [5]) was above 100 µM. The same compound returned a CC50 in series [2] above 100 µM.
`NC(=O)c1nccnc1O` [T-1105]: the IC50 in series [1] (setting [5]) was above 100 µM. The CC50 in series [2] is above 100 µM.
`COC(=O)OCOc1c2n(ccc1=O)N([C@@H]1c3ccccc3SCc3c1ccc(F)c3F)[C@@H]1COCCN1C2=O` [Baloxavir Marboxil]: the IC50 in series [1] (setting [5]) was above 100 µM. Further, in series [2], the CC50 is above 100 µM.
With `O=C(O)[C@H]1C2CCC(CC2)[C@@H]1Nc1nc(-c2c[nH]c3ncc(F)cc23)ncc1F` [Pimodivir], in series [1] (setting [5]), the IC50 is above 100 µM. The same compound registered a CC50 in series [2] above 100 µM.
On to `CC(C)OC(=O)[C@H](C)N[P@](=O)(CO[C@H](C)Cn1cnc2c(N)ncnc21)Oc1ccccc1` [Tenofovir Alafenamide], for which, in series [1] (setting [5]), the IC50 is above 100 µM. In series [2], this compound gave a CC50 above 100 µM.
Take `CC(C)C(=O)OC[C@H]1O[C@@H](n2ccc(NO)nc2=O)[C@H](O)[C@@H]1O` [Molnupiravir]: the IC50 in series [1] (setting [5]) came to 27 ± 4 µM. The compound further came in with a CC50 in series [2] above 100 µM.
Take `CCC(CC)COC(=O)[C@H](C)N[P@](=O)(OC[C@H]1O[C@@](C#N)(c2ccc3c(N)ncnn23)[C@H](O)[C@@H]1O)Oc1ccccc1` [Remdesivir]: the “Activity against RVFV in cell culture” value in series [1] was “no effect”. For the same compound, the IC50 in series [1] (setting [5]) was above 100 µM. Besides, in series [2], the CC50 is above 100 µM.
For the compound `CC(=O)Nc1ccn([C@@H]2O[C@H](CO)[C@@H](O)[C@H]2F)c(=O)n1` [N4-acetyl-2'-fluoro-2'-deoxycytidine], the IC50 in series [1] (setting [5]) was found to be 20 ± 3 µM. In series [2], the CC50 is above 100 µM.
As for `O=c1nc(NO)ccn1[C@@H]1O[C@H](CO)[C@@H](O)[C@H]1O` [EIDD-1931], the IC50 in series [4] was 1.6 ± 0.2 µM; in series [1] (setting [5]) it was 2 ± 0.3 µM; in series [1] (setting [6]) it was 1.5 to 2.8 µM. The “Cytotoxicity” value in series [3] is “nontoxic in selected concentration range”. Also, the CC50 in series [2] is above 100 µM.
Turning to `Cc1cn([C@H]2C[C@H](N=[N+]=[N-])[C@@H](CO)O2)c(=O)[nH]c1=O` [Zidovudine], the IC50 in series [1] (setting [5]) is above 100 µM. This compound gave a CC50 in series [2] above 100 µM.
For the compound `O=c1ccn([C@@H]2O[C@H](CO)[C@@H](O)[C@H]2F)c(=O)[nH]1` [2´-fluoro-2´-deoxyuridine], the IC50 in series [1] (setting [5]) was above 100 µM. This compound also returned a CC50 in series [2] above 100 µM.
For `Nc1ccn([C@@H]2O[C@H](CO)[C@@H](O)[C@@H]2O)c(=O)n1` [Cytarabine, Cytosine arabinoside], the IC50 in series [1] (setting [5]) is above 100 µM. In addition, the CC50 in series [2] was above 100 µM.
Take `NC(=O)c1nc(F)c[nH]c1=O` [Favipiravir]: the IC50 in series [1] (setting [5]) came to 37 ± 6 µM. The CC50 in series [2] is above 100 µM.
Take `Nc1ccn([C@@H]2O[C@H](CO)[C@@H](O)C2(F)F)c(=O)n1` [Gemcitabine, 2'-deoxy-2',2'-difluorocytidine]: the IC50 in series [1] (setting [5]) was above 100 µM. Besides, the CC50 in series [2] was above 100 µM.
Take `Nc1ccn([C@@H]2O[C@H](CO)[C@@H](O)[C@H]2F)c(=O)n1` [2'-fluoro-2'-deoxycytidine]: the figures for the concentration for half-maximal inhibition (IC50) in series [4], in series [1] (setting [5]) and in series [1] (setting [6]) were 5.9 ± 1.1 µM, 3 ± 0.3 µM and 2.4 to 3.9 µM, respectively. For the same compound, the “Cytotoxicity” value in series [3] is recorded as “nontoxic in selected concentration range”. In series [2], this compound showed a CC50 above 100 µM.
Regarding `CCCC(CCC)C(=O)Nc1ccn([C@@H]2O[C@H](CO)[C@@H](O)C2(F)F)c(=O)n1` [LY-2334737], the concentration for half-maximal inhibition (IC50) in series [1] (setting [5]) was above 100 µM. The compound also gave a CC50 in series [2] above 100 µM.
For `O=c1ccn([C@@H]2C=C(CO)[C@@H](O)[C@H]2O)c(=O)[nH]1` [Cyclopentenyluracil], the half-inhibitory concentration (IC50) in series [1] (setting [5]) is above 100 µM. For the same compound, the CC50 in series [2] is above 100 µM.
With `NC(=O)c1ncn([C@@H]2O[C@H](CO)[C@@H](O)[C@H]2O)n1` [Ribavirin], in series [1] (setting [5]), the concentration for half-maximal inhibition (IC50) was found to be 55 ± 9 µM. Besides, the CC50 in series [2] is above 100 µM.
In the same order, the values of `CCCCCCCC/C=C/CCCCCCCC(=O)OC[C@H]1O[C@@H](n2ccc(N)nc2=O)C(F)(F)[C@@H]1O` [Gemcitabine elaidate] are above 100 µM and above 100 µM.
For `C[C@@]1(F)[C@H](O)[C@@H](CO)O[C@H]1n1ccc(N)nc1=O` [PSI-6130, 2'-deoxy-2'-fluoro-2'-C-methylcytidine], the IC50 in series [1] (setting [5]) was above 100 µM. In series [2], the CC50 was above 100 µM.
For 5'-aza-2'-deoxycytidine [Decitabine], in series [3], the CC50 is above 100 µM.
As to `Cc1cn([C@H]2C=C[C@@H](CO)O2)c(=O)[nH]c1=O` [Stavudine], the IC50 in series [1] (setting [5]) was above 100 µM. In series [2], this compound had a CC50 above 100 µM.
In series [3], 5'-azacytidine displayed a CC50 above 100 µM.
Consider `Nc1nc2c(ncn2[C@@H]2O[C@H](CO)[C@@H](O)[C@H]2F)c(=O)[nH]1` [2´-fluoro-2´-deoxyguanosine], for which the IC50 in series [1] (setting [5]) is 23 ± 3 µM. The compound further gave a CC50 in series [2] above 100 µM.
As for `Nc1ncnc2c1ncn2[C@@H]1O[C@H](CO)[C@@H](O)[C@H]1F` [2´-fluoro-2´-deoxyadenosine], the IC50 in series [1] (setting [5]) was above 100 µM. In series [2], this compound gave a CC50 above 100 µM.
Regarding `O=C(Nc1ccn([C@@H]2O[C@H](CO)[C@@H](O)[C@H]2F)c(=O)n1)c1ccccc1` [N4-benzoyl-2'-fluoro-2'-deoxycytidine], in series [1] (setting [5]), the IC50 was found to be 34 ± 4 µM. This compound also gave a CC50 in series [2] above 100 µM.
As for `CC(C)OC(=O)[C@H](C)N[P@](=O)(OC[C@H]1O[C@@H](n2ccc(=O)[nH]c2=O)[C@](C)(F)[C@@H]1O)Oc1ccccc1` [Sofosbuvir], in series [1], the “Activity against RVFV in cell culture” value is listed as “lacked activity”. The IC50 in series [1] (setting [5]) was above 100 µM. The compound also came in with a CC50 in series [2] above 100 µM.
In the case of `Nc1ccn(C[C@@H](CO)OCP(=O)(O)O)c(=O)n1` [Cidofovir], the “Activity against RVFV in cell culture” value in series [1] was “no effect”. In addition, in series [1] (setting [5]), the IC50 was above 100 µM. Also, in series [2], the CC50 is above 100 µM.
Regarding `Nc1ccn([C@@H]2C=C(CO)[C@@H](O)[C@H]2O)c(=O)n1` [Cyclopentenylcytosine], the IC50 in series [1] (setting [5]) was above 100 µM. The CC50 in series [2] is above 100 µM.
